Measurements as given in patent US20240109896A1, “FGFR KINASE INHIBITOR AND USE THEREOF” (YA THERAPEUTICS INC, priority 2021, published 2024).
pIC50: −log10 of the molar value. Like-named read-outs stand apart in the source and are kept apart here.

Tests used:
FGFR1 = FGFR1 (Homo sapiens, UniProt P11362); test: In vitro activity inhibition test for kinase FGFR1
Protocol: (§1) In Vitro Activity Inhibition Test for Kinases FGFR1, FGFR2, FGFR3 and FGFR4
(§2) The activity of FGFR1, FGFR2, FGFR3 and FGFR4 protein kinases was determined by Caliper mobility shift assay. Perform a 4-fold gradient dilution from a working concentration of 0.2 mM in DMSO, diluting 10 concentrations. Add 2 μL of compound to 78 μL of 1× compound buffer. There were 10 points each for the negative control and the positive control. Shake the board on the rocker for 20 min. […] The final concentration of DMSO was 0.5%.

FGFR3 = FGFR3 (Homo sapiens, UniProt P22607); test: In vitro activity inhibition test for kinase FGFR3;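 also: FGFR3 kinase activity read by Caliper mobility shift assay, compounds run as 10-point 4-fold dilution series, final DMSO 0.5%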
Protocol: as §1, §2

FGFR2 = FGFR2 (Homo sapiens, UniProt P21802); test: In vitro activity inhibition test for kinase FGFR2; type: biochemical; settings: kinase assay, 25° C.; read-out: Inhibition of separase IC50 (nM) FGFR2
FGFR4 = FGFR4 (Homo sapiens, UniProt P22455); test: In vitro activity inhibition test for kinase FGFR4;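 also: caliper mobility shift assay of FGFR4 kinase activity, compounds tested as 10-point 4-fold dilution series with 0.5% DMSO final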
Chain of FGFR4 (P22455 22-802): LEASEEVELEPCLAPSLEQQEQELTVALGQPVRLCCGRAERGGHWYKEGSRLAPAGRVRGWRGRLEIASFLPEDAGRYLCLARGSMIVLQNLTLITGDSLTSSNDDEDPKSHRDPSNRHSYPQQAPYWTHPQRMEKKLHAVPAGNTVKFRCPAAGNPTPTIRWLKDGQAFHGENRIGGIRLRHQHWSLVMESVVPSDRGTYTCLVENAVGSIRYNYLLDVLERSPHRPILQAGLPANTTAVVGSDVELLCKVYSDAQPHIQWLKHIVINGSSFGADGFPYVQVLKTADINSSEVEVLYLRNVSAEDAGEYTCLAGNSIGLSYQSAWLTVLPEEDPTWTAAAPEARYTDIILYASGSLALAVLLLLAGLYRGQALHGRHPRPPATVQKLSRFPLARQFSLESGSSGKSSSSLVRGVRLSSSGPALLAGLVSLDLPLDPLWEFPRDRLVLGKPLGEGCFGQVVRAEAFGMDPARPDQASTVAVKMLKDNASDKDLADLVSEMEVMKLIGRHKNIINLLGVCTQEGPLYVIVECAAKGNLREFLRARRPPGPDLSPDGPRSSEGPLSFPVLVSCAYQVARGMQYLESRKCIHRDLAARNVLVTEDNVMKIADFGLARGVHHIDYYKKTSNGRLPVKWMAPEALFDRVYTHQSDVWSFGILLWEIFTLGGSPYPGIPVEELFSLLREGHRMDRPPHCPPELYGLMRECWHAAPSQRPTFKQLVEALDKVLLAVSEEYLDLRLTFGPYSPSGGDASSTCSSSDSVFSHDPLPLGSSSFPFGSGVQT
Protocol: as §1, §2

Chain of FGFR1 (P11362 22-822): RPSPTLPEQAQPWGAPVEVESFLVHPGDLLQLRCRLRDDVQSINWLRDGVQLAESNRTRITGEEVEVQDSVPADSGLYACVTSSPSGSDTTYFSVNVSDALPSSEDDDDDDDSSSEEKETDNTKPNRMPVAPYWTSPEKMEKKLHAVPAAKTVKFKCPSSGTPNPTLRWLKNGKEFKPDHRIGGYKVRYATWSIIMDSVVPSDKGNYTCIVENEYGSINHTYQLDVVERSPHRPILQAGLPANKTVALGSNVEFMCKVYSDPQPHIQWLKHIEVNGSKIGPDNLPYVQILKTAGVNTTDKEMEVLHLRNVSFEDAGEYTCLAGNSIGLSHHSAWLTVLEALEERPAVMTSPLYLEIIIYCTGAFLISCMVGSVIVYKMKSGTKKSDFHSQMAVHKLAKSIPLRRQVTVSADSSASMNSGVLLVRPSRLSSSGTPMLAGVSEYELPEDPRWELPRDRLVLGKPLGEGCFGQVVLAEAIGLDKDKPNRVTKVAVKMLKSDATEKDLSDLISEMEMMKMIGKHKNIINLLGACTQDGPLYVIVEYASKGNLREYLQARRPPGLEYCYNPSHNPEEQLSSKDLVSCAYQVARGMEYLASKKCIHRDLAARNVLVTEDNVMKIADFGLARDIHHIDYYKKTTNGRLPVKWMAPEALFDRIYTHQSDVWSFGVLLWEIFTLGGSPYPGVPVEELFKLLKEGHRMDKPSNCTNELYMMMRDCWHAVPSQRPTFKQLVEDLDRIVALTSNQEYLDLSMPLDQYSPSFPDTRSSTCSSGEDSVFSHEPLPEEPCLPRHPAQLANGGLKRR
Chain of FGFR3 (P22607 23-806): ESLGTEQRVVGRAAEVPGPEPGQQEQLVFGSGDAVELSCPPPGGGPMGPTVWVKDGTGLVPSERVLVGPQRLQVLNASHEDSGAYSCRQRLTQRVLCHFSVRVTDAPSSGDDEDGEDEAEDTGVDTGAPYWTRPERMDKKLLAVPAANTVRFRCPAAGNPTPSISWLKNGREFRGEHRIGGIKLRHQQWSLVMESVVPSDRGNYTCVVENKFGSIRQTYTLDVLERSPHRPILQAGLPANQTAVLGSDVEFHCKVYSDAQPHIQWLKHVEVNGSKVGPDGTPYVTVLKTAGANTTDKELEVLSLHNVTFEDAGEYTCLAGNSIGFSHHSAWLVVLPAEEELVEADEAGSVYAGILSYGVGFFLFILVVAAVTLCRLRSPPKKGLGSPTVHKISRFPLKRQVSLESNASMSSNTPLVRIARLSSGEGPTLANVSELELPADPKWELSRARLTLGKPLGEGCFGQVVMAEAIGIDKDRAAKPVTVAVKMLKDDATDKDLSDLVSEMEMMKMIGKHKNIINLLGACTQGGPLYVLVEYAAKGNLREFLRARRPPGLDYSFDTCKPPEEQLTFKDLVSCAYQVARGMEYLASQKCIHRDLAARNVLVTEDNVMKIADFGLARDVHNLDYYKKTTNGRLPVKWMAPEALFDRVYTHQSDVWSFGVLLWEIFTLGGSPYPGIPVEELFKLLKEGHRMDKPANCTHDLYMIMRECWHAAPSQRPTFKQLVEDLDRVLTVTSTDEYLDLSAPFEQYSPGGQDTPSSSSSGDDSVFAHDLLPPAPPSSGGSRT
Chain of FGFR2 (P21802 22-821): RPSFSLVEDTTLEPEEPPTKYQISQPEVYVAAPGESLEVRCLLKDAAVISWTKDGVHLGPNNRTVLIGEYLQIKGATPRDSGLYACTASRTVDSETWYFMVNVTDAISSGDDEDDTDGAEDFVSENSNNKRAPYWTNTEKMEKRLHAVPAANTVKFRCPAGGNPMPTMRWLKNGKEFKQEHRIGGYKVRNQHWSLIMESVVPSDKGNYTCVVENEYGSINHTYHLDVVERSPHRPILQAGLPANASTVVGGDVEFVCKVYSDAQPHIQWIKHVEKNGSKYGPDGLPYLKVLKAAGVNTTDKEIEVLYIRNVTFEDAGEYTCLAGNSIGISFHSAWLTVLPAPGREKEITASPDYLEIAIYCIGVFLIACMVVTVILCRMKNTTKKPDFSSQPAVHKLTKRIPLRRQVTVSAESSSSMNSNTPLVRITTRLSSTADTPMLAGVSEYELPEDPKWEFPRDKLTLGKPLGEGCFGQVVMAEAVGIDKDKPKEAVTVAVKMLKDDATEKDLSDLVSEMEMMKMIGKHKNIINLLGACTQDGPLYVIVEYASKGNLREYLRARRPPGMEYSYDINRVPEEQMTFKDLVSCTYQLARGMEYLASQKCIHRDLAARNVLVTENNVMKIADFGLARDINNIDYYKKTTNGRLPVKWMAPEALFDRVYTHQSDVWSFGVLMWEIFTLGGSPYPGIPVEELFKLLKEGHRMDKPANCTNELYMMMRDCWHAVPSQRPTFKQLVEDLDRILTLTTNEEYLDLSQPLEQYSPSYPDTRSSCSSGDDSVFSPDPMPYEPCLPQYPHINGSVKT

2-(1-acryloylpyrrolidin-3-yl)-4-((3,5-dimethoxyphenyl)ethynyl)pyrimidine-5-carboxamide [Compound 19]
IC50 (FGFR1; read-out: Inhibition of FGFR1 IC50 (nM) FGFR1, kinase assay, 25° C.): < 10 nM | IC50 (FGFR3; read-out: Inhibition IC50 (nM) FGFR3, kinase assay, 25° C.): < 10 nM | IC50 (FGFR2): < 10 nM | IC50 (FGFR4; read-out: Inhibition of kinase IC50 (nM) FGFR4, kinase assay, 25° C.): < 10 nM

C=CC(=O)N1CC[C@H](Nc2nccc(C#Cc3cc(OC)cc(OC)c3)n2)C1 [Compound 1, (S)-1-(3-((4-((3,5-dimethoxyphenyl)ethynyl)pyrimidin-2-yl)amino)pyrrolidin-1-yl)prop-2-en-1-one]
pIC50 (FGFR1): 7.00 to 8.00 | pIC50 (FGFR3): 6.30 to 7.00 | IC50 (FGFR2): 10 to 100 nM | pIC50 (FGFR4): 7.00 to 8.00

C=CC(=O)N1CC[C@H](Nc2ncc(Br)c(C#Cc3cc(OC)cc(OC)c3)n2)C1 [Compound 2, (S)-1-(3-((5-bromo-4-((3,5-dimethoxyphenyl)ethynyl)pyrimidin-2-yl)amino)pyrrolidin-1-yl)prop-2-en-1-one]
pIC50 (FGFR1): 7.00 to 8.00 | pIC50 (FGFR3): 6.30 to 7.00 | IC50 (FGFR2): 10 to 100 nM | pIC50 (FGFR4): 6.30 to 7.00

C=CC(=O)N1CC[C@H](Nc2ncc(F)c(C#Cc3cc(OC)cc(OC)c3)n2)C1 [Compound 3, (S)-1-(3-((4-((3,5-dimethoxyphenyl)ethynyl)-5-fluoropyrimidin-2-yl)amino)pyrrolidin-1-yl)prop-2-en-1-one]
pIC50 (FGFR1): 7.00 to 8.00 | pIC50 (FGFR3): 7.00 to 8.00 | IC50 (FGFR2): 10 to 100 nM | pIC50 (FGFR4): 7.00 to 8.00

C=CC(=O)N1CC[C@H](Nc2ncc(C(F)(F)F)c(C#Cc3cc(OC)cc(OC)c3)n2)C1 [Compound 4, (S)-1-(3-((4-((3,5-dimethoxyphenyl)ethynyl)-5-(trifluoromethyl)pyrimidin-2-yl)amino)pyrrolidin-1-yl)prop-2-en-1-one]
pIC50 (FGFR1): 7.00 to 8.00 | pIC50 (FGFR3): 7.00 to 8.00 | IC50 (FGFR2): 100 to 500 nM | pIC50 (FGFR4): 7.00 to 8.00

C=CC(=O)N1CC[C@H](Nc2ncc(C#N)c(C#Cc3cc(OC)cc(OC)c3)n2)C1 [Compound 5, (S)-2-((1-acryloylpyrrolidin-3-yl)amino)-4-((3,5-dimethoxyphenyl)ethynyl)pyrimidine-5-carbonitrile]
pIC50 (FGFR1): 7.00 to 8.00 | pIC50 (FGFR3): 6.30 to 7.00 | IC50 (FGFR2): 10 to 100 nM | pIC50 (FGFR4): 7.00 to 8.00

C=CC(=O)N1CC[C@H](Nc2nc(N)c(C(N)=O)c(C#Cc3cc(OC)cc(OC)c3)n2)C1 [Compound 6, (S)-2-((1-acryloylpyrrolidin-3-yl)amino)-4-amino-6-((3,5-dimethoxyphenyl)ethynyl)pyrimidine-5-carboxamide]
pIC50 (FGFR1): > 8.00 | pIC50 (FGFR3): > 8.00 | IC50 (FGFR2): < 10 nM | pIC50 (FGFR4): > 8.00

C=CC(=O)N1CC2(CC(Nc3nc(N)c(C(N)=O)c(C#Cc4cc(OC)cc(OC)c4)n3)C2)C1 [Compound 7, 2-((2-acryloyl-2-azaspiro[3.3]heptan-6-yl)amino)-4-amino-6-((3,5-dimethoxyphenyl)ethynyl)pyrimidine-5-carboxamide]
pIC50 (FGFR1): 7.00 to 8.00 | pIC50 (FGFR3): 7.00 to 8.00 | IC50 (FGFR2): 10 to 100 nM | pIC50 (FGFR4): 7.00 to 8.00

C=CC(=O)N1CCC2(CC(Nc3nc(N)c(C(N)=O)c(C#Cc4cc(OC)cc(OC)c4)n3)C2)C1 (centres unmarked) [Compound 8, 2-((6-acryloyl-6-azaspiro[3.4]octan-2-yl)amino)-4-amino-6-((3,5-dimethoxyphenyl)ethynyl)pyrimidine-5-carboxamide]
pIC50 (FGFR1): 6.30 to 7.00 | pIC50 (FGFR3): 7.00 to 8.00 | IC50 (FGFR2): 10 to 100 nM | pIC50 (FGFR4): 6.30 to 7.00

C=CC(=O)N1CCC2(CC1)CC(Nc1nc(N)c(C(N)=O)c(C#Cc3cc(OC)cc(OC)c3)n1)C2 [Compound 9, 2-((7-acryloyl-7-azaspiro[3.5]nonan-2-yl)amino)-4-amino-6-((3,5-dimethoxyphenyl)ethynyl)pyrimidine-5-carboxamide]
pIC50 (FGFR1): 6.30 to 7.00 | pIC50 (FGFR3): 7.00 to 8.00 | IC50 (FGFR2): 10 to 100 nM | pIC50 (FGFR4): 6.30 to 7.00

C=CC(=O)N1CCC(Nc2nc(N)c(C(N)=O)c(C#Cc3cc(OC)cc(OC)c3)n2)CC1 [Compound 10, 2-((1-acryloylpiperidin-4-yl)amino)-4-amino-6-((3,5-dimethoxyphenyl)ethynyl)pyrimidine-5-carboxamide]
pIC50 (FGFR1): 7.00 to 8.00 | pIC50 (FGFR3): 6.30 to 7.00 | IC50 (FGFR2): 10 to 100 nM | pIC50 (FGFR4): 7.00 to 8.00

C=CC(=O)N1CCC[C@H](Nc2nc(N)c(C(N)=O)c(C#Cc3cc(OC)cc(OC)c3)n2)C1 [Compound 11, (S)-2-((1-acryloylpiperidin-3-yl)amino)-4-amino-6-((3,5-dimethoxyphenyl)ethynyl)pyrimidine-5-carboxamide]
pIC50 (FGFR1): 7.00 to 8.00 | pIC50 (FGFR3): 6.30 to 7.00 | IC50 (FGFR2): 10 to 100 nM | pIC50 (FGFR4): 7.00 to 8.00

CC#CC(=O)N1CC[C@H](Nc2nc(N)c(C(N)=O)c(C#Cc3cc(OC)cc(OC)c3)n2)C1 [Compound 12, (S)-4-amino-2-((1-(but-2-ynoyl)pyrrolidin-3-yl)amino)-6-((3,5-dimethoxyphenyl)ethynyl)pyrimidine-5-carboxamide]
pIC50 (FGFR1): > 8.00 | pIC50 (FGFR3): > 8.00 | IC50 (FGFR2): < 10 nM | pIC50 (FGFR4): > 8.00

CC#CC(=O)N1CC[C@H](Nc2ncc(Br)c(C#Cc3cc(OC)cc(OC)c3)n2)C1 [Compound 13, (S)-1-(3-((5-bromo-4-((3,5-dimethoxyphenyl)ethynyl)pyrimidin-2-yl)amino)pyrrolidin-1-yl)but-2-yn-1-one]
pIC50 (FGFR1): 7.00 to 8.00 | pIC50 (FGFR3): 7.00 to 8.00 | IC50 (FGFR2): 10 to 100 nM | pIC50 (FGFR4): 6.30 to 7.00

CC#CC(=O)N1CC[C@H](Nc2ncc(C(F)(F)F)c(C#Cc3cc(OC)cc(OC)c3)n2)C1 [Compound 14, (S)-1-(3-((4-((3,5-dimethoxyphenyl)ethynyl)-5-(trifluoromethyl)pyrimidin-2-yl)amino)pyrrolidin-1-yl)but-2-yn-1-one]
pIC50 (FGFR1): 7.00 to 8.00 | pIC50 (FGFR3): 6.30 to 7.00 | IC50 (FGFR2): 10 to 100 nM | pIC50 (FGFR4): 7.00 to 8.00

C=CC(=O)N1CC[C@@H](Nc2nc(N)c(C(N)=O)c(C#Cc3cc(OC)cc(OC)c3)n2)C1 [Compound 15, (R)-2-((1-acryloylpyrrolidin-3-yl)amino)-4-amino-6-((3,5-dimethoxyphenyl)ethynyl)pyrimidine-5-carboxamide]
pIC50 (FGFR1): > 8.00 | pIC50 (FGFR3): > 8.00 | IC50 (FGFR2): < 10 nM | pIC50 (FGFR4): > 8.00

C=CC(=O)N1CC[C@H](Nc2ncc(C(N)=O)c(C#Cc3cc(OC)cc(OC)c3)n2)C1 [Compound 16, (S)-2-((1-acryloylpyrrolidin-3-yl)amino)-4-((3,5-dimethoxyphenyl)ethynyl)pyrimidine-5-carboxamide]
pIC50 (FGFR1): > 8.00 | pIC50 (FGFR3): 7.00 to 8.00 | IC50 (FGFR2): < 10 nM | pIC50 (FGFR4): 7.00 to 8.00

C=CC(=O)N[C@H]1CCN(c2nc(N)c(C(N)=O)c(C#Cc3cc(OC)cc(OC)c3)n2)C1 [Compound 17, (S)-2-(3-acrylamidopyrrolidin-1-yl)-4-amino-6-((3,5-dimethoxyphenyl)ethynyl)pyrimidine-5-carboxamide]
pIC50 (FGFR1): > 8.00 | pIC50 (FGFR3): > 8.00 | IC50 (FGFR2): < 10 nM | pIC50 (FGFR4): > 8.00

C=CC(=O)N1CCC(c2nc(N)c(C(N)=O)c(C#Cc3cc(OC)cc(OC)c3)n2)C1 (centres unmarked) [Compound 18, 2-(1-acryloylpyrrolidin-3-yl)-4-amino-6-((3,5-dimethoxyphenyl)ethynyl)pyrimidine-5-carboxamide]
pIC50 (FGFR1): 7.00 to 8.00 | pIC50 (FGFR3): > 8.00 | IC50 (FGFR2): < 10 nM | pIC50 (FGFR4): > 8.00

CC#CC(=O)N1CCC[C@H](n2cc(C#Cc3cc(OC)cc(OC)c3)c3c(N)n[nH]c(=O)c32)C1 [Compound 21, (S)-4-amino-1-(1-(but-2-ynoyl)piperidin-3-yl)-3-((3,5-dimethoxyphenyl)ethynyl)-1,6-dihydro-7H-pyrrolo[2,3-d]pyridazin-7-one]
pIC50 (FGFR1): > 8.00 | pIC50 (FGFR3): > 8.00 | IC50 (FGFR2): < 10 nM | pIC50 (FGFR4): > 8.00

CC#CC(=O)N1CC[C@H](n2cc(C#Cc3cc(OC)cc(OC)c3)c3c(N)n[nH]c(=O)c32)C1 [Compound 23, (S)-4-amino-1-(1-(but-2-ynoyl)pyrrolidin-3-yl)-3-((3,5-dimethoxyphenyl)ethynyl)-1,6-dihydro-7H-pyrrolo[2,3-d]pyridazin-7-one]
pIC50 (FGFR1): > 8.00 | pIC50 (FGFR3): > 8.00 | IC50 (FGFR2): < 10 nM | pIC50 (FGFR4): > 8.00

CC#CC(=O)N1CCC[C@H](n2nc(C#Cc3cc(OC)cc(OC)c3)c3c(N)n[nH]c(=O)c32)C1 [Compound 25, (S)-4-amino-1-(1-(but-2-ynoyl)piperidin-3-yl)-3-((3,5-dimethoxyphenyl)ethynyl)-1,6-dihydro-7H-pyrazolo[3,4-d]pyridazin-7-one]
pIC50 (FGFR1): > 8.00 | pIC50 (FGFR3): > 8.00 | IC50 (FGFR2): < 10 nM | pIC50 (FGFR4): > 8.00

CC#CC(=O)N1CC[C@H](n2nc(C#Cc3cc(OC)cc(OC)c3)c3c(N)n[nH]c(=O)c32)C1 [Compound 27, (S)-4-amino-1-(1-(but-2-ynoyl)pyrrolidin-3-yl)-3-((3,5-dimethoxyphenyl)ethynyl)-1,6-dihydro-7H-pyrazolo[3,4-d]pyridazin-7-one]
pIC50 (FGFR1): > 8.00 | pIC50 (FGFR3): > 8.00 | IC50 (FGFR2): < 10 nM | pIC50 (FGFR4): > 8.00

CC#CC(=O)N1CC[C@H](n2cc(-c3ccc4ccccc4c3)c3c(N)n[nH]c(=O)c32)C1 [Compound 39, (S)-4-amino-1-(1-(but-2-ynoyl)pyrrolidin-3-yl)-3-(naphthalen-2-yl)-1,6-dihydro-7H-pyrrolo[2,3-d]pyridazin-7-one]
pIC50 (FGFR1): > 8.00 | pIC50 (FGFR3): > 8.00 | IC50 (FGFR2): < 10 nM | pIC50 (FGFR4): > 8.00

C=CC(=O)N1CC[C@H](n2cc(-c3cc4ccccc4n3C)c3c(N)n[nH]c(=O)c32)C1 [Compound 40, (S)-1-(1-acryloylpyrrolidin-3-yl)-4-amino-3-(1-methyl-1H-indol-2-yl)-1,6-dihydro-7H-pyrrolo[2,3-d]pyridazin-7-one]
pIC50 (FGFR1): > 8.00 | pIC50 (FGFR3): > 8.00 | IC50 (FGFR2): < 10 nM | pIC50 (FGFR4): > 8.00

C=CC(=O)N1CC[C@H](n2cc(-c3cc4ccccc4o3)c3c(N)n[nH]c(=O)c32)C1 [Compound 41, (S)-1-(1-acryloylpyrrolidin-3-yl)-4-amino-3-(benzofuran-2-yl)-1,6-dihydro-7H-pyrrolo[2,3-d]pyridazin-7-one]
pIC50 (FGFR1): > 8.00 | pIC50 (FGFR3): > 8.00 | IC50 (FGFR2): < 10 nM | pIC50 (FGFR4): > 8.00
